Measured values reported in US20230024108A1, “ADENOSINE A2A RECEPTOR ANTAGONISTS” (Teon Therapeutics, Inc., priority 2019, published 2023).

Legend:
human A2A AdoR = molecular target: T1, human A2A AdoR (Homo sapiens, UniProt P29274); assay: Adenosine receptor binding assay, A2A ([3H]-CGS-21680); details: membranes of HEK-293 cells expressing human A2A AdoR; read-out: hA2A IC50
T1 construct: purchased PerkinElmer RBHA2AM400UA
Description: (§1) Membranes prepared from CHO-K1 cells stably expressing Human AiAdoR (ES-010-M400UA), HEK-293 cells stably expressing human A2A AdoR (RBHA2AM400UA), HEK-293 cells stably expressing human A2B AdoR (ES-013-M400UA) and CHO-K1 cells stably expressing Human A3 AdoR (ES-012-M400UA) were purchased from PerkinElmer (Waltham, Mass., USA) and stored at −80° C. until use. Binding assays are performed using the radioligands. The final concentrations are as follows: [3H]-DPCPX (PerkinElmer, NET974001MC) at 1 nM for A1AdoR; [^3H]-CGS-21680 (PerkinElmer, NET1021250UC) at 6 nM for A2AAdoR, [3H]-DPCPX (PerkinElmer, NET974001MC) at 8 nM for A2BAdoR; [^3H]-HEMADO (ARC, Cat: ART1456) at 1 nM for A3AdoR. Testing compounds are diluted with DMSO to make 8-point 4-fold serial dilution. Nonspecific binding (Low control: LC) and total binding (High control: HC) are determined in the presence or absence of saturated cold ligand. Specific binding is calculated by subtracting nonspecific binding from total binding. All assays are performed in a final volume of 200 μl containing 1 μl of the test compound in DMSO, 100 μl of membrane preparation, and 99 μl of the radioligand in assay buffer (A1AdoR: 25 mM HEPES pH 7.4, 5 mM MgCl2, 1 mM CaCl2), 100 mM NaCl; A2AAdoR: 50 mM Tris HCl pH 7.4, 10 mM MgCl2, 1 mM EDTA; A2BAdoR: 50 mM HEPES pH 7.0, 5 mM MgCl2, 1 mM EDTA; A3AdoR: 25 HEPES pH 7.4, 10 mM MgCl2, 1 mM CaCl2), 0.5% BSA). The incubation is performed at room temperature with shaking at 300 rpm for 1 hour for A1AdoR, A2BAdoR and A3AdoR and 2 hours for A2AAdoR. After the incubation, the assay mixture is filtered through 96 GF/C filter plates (Perkin Elmer #6005174) using Perkin Elmer Filtermate Harvester, and then washed four times with ice-cold washing buffer (A1AdoR: 25 mM HEPES pH 7.4, 5 mM MgCl2, 1 mM CaCl2), 100 mM NaCl; A2AAdoR: 50 mM Tris HCl pH 7.4, 154 mM NaCl; A2BAdoR: 50 mM HEPES pH 6.5, 5 mM MgCl2, 1 mM EDTA, 0.2% BSA; A3AdoR: 50 mM Tris HCl pH 7.4). The filters are dried for 1 hour at 50° C. and [^3H] trapped on filter counted for radioactivity in Perkin Elmer Microscint 20 cocktail (#6013329) using Perkin Elmer MicroBeta2 Reader. The results are expressed as a percent inhibition of the control radioligand specific binding calculated using the following equation: % Inhibition=(1−(Assay well-Average_LC)/(Average_HC−Average_LC))×100%. Data are analyzed and IC50 is calculated using GraphPad Prism 5 and the model “log(inhibitor) vs. response—Variable slope”. The binding affinity of the compounds is determined by using the Cheng and Prusoff equation Ki=IC50/(1+[radioligand]/Kd).

A1AdoR = molecular target: T2, A1AdoR (Homo sapiens, UniProt P30542); assay: Adenosine receptor binding assay, A1 ([3H]-DPCPX); details: ratio A1 vs A2A binding
T2 construct: purchased PerkinElmer ES-010-M400UA
T2 sequence (P30542 1-326): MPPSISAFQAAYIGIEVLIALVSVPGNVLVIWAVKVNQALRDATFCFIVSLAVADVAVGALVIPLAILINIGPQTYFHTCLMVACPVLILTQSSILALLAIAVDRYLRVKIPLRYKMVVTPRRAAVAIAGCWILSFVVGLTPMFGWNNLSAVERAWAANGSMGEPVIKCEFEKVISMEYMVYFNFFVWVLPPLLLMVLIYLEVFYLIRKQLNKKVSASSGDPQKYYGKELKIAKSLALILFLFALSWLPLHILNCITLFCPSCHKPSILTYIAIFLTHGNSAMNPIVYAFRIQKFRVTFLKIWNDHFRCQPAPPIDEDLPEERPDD
Description: as §1

T1 sequence (P29274 whole entry): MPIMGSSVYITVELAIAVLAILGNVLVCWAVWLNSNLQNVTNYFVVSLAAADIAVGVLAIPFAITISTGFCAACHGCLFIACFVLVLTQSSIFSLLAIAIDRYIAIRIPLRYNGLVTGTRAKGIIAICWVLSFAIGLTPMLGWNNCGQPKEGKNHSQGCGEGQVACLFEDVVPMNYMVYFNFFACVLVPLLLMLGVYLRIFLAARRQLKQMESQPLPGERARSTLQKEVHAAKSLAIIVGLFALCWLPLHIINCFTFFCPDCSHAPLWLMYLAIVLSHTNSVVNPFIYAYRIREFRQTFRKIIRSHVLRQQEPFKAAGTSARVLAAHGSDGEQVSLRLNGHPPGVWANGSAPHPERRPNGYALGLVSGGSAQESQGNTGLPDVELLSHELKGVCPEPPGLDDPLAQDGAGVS

Compound	IC50 (human A2A AdoR) [nM]	A1/A2A Selectivity (A1AdoR)
CC#Cc1nc2c3ncn(CCN4CCc5ncc(C6COC6)cc5C4)c3nc(N)n2n1	20 to 100	b (greater than 100 but less than or equal to 1000)
Cc1c(C(=O)O)n(CCN2CCN(c3ccncc3)CC2)c2nc(N)n3nc(-c4ccccn4)nc3c12	20 to 100	c (greater than 0 but less than or equal to 100)
CC#Cc1nc2c3ncn(CCN4CCc5ncc(-c6nccs6)cc5C4)c3nc(N)n2n1	≤ 20	c (greater than 0 but less than or equal to 100)
Nc1nc2c(ncn2CCN2CCc3ncc(-c4nccs4)cc3C2)c2nc(-c3ccccn3)nn12	≤ 20	c (greater than 0 but less than or equal to 100)
CC#Cc1nc2c3ncn(CCN4CCN(c5ccc(OC(C)(C)C(=O)OC)cc5F)CC4)c3nc(N)n2n1	≤ 20	a (greater than 1000)
CC#Cc1nc2c3ncn(CCN4CCN(c5ccc(OC(C)(C)C(=O)O)cc5)CC4)c3nc(N)n2n1 [2-(4-(4-(2-(5-amino-8-(prop-1-yn-1-yl)-3H-[1,2,4]triazolo[5,1-i]purin-3-yl)ethyl)piperazin-1-yl)phenoxy)-2-methylpropanoic acid]	20 to 100	b (greater than 100 but less than or equal to 1000)
CC(C)(Oc1ccc(N2CCN(CCn3cnc4c3nc(N)n3nc(-c5ccccn5)nc43)CC2)c(F)c1)C(=O)O [2-(4-(4-(2-(5-amino-8-(pyridin-2-yl)-3H-[1,2,4]triazolo[5,1-i]purin-3-yl)ethyl)piperazin-1-yl)-3-fluorophenoxy)-2-methylpropanoic acid]	≤ 20	b (greater than 100 but less than or equal to 1000)
NC(=O)c1c(Cl)c2c(nc(N)n3nc(-c4ccccn4)nc23)n1CCN1CCN(c2ccc(OCC(=O)O)cc2)CC1 [2-(4-(4-(2-(5-amino-8-carbamoyl-9-chloro-2-(pyridin-2-yl)-7H-pyrrolo[3,2-e][1,2,4]triazolo[1,5-c]pyrimidin-7-yl)ethyl)piperazin-1-yl)phenoxy)acetic acid]	≤ 20	b (greater than 100 but less than or equal to 1000)
Nc1nc2c(ncn2CCN2CCc3ncc(C4COC4)cc3C2)c2nc(-c3ccccn3)nn12 [3-(2-(3-(oxetan-3-yl)-7,8-dihydro-1,6-naphthyridin-6(5H)-yl)ethyl)-8-(pyridin-2-yl)-3H-[1,2,4]triazolo[5,1-i]purin-5-amine]	20 to 100	c (greater than 0 but less than or equal to 100)
Nc1nc2c(ncn2CCN2CCN(c3cc(-n4cccn4)ccc3F)CC2)c2nc(-c3ccccn3)nn12 [3-(2-(4-(2-fluoro-5-(1H-pyrazol-1-yl)phenyl)piperazin-1-yl)ethyl)-8-(pyridin-2-yl)-3H-[1,2,4]triazolo[5,1-i]purin-5-amine]	≤ 20	b (greater than 100 but less than or equal to 1000)
Nc1nc2c(ncn2CCN2CCN(c3cc(-c4ncco4)ccc3F)CC2)c2nc(-c3ccccn3)nn12 [3-(2-(4-(2-fluoro-5-(oxazol-2-yl)phenyl)piperazin-1-yl)ethyl)-8-(pyridin-2-yl)-3H-[1,2,4]triazolo[5,1-i]purin-5-amine]	≤ 20	b (greater than 100 but less than or equal to 1000)
CC#Cc1nc2c3ncn(CCN4CCN(c5cc6c(C)noc6cc5F)CC4)c3nc(N)n2n1 [3-(2-(4-(6-fluoro-3-methylbenzo[d]isoxazol-5-yl)piperazin-1-yl)ethyl)-8-(prop-1-yn-1-yl)-3H-[1,2,4]triazolo[5,1-i]purin-5-amine]	≤ 20	a (greater than 1000)
Cc1c(C(N)=O)n(CCN2CCN(c3ccc(F)cc3F)CC2)c2nc(N)n3nc(-c4ccccn4)nc3c12 [5-amino-7-(2-(4-(2,4-difluorophenyl)piperazin-1-yl)ethyl)-9-methyl-2-(pyridin-2-yl)-7H-pyrrolo[3,2-e][1,2,4]triazolo[1,5-c]pyrimidine-8-carboxamide]	≤ 20	b (greater than 100 but less than or equal to 1000)
Cc1c(C(=O)O)n(CCN2CCN(c3ccc(F)cc3F)CC2)c2nc(N)n3nc(-c4ccccn4)nc3c12 [5-amino-7-(2-(4-(2,4-difluorophenyl)piperazin-1-yl)ethyl)-9-methyl-2-(pyridin-2-yl)-7H-pyrrolo[3,2-e][1,2,4]triazolo[1,5-c]pyrimidine-8-carboxylic acid]	≤ 20	b (greater than 100 but less than or equal to 1000)
Cc1c(C(=O)O)n(CCN2CCCN(c3cc(-c4ncco4)ccc3F)CC2)c2nc(N)n3nc(-c4ccccn4)nc3c12 [5-amino-7-(2-(4-(2-fluoro-5-(oxazol-2-yl)phenyl)-1,4-diazepan-1-yl)ethyl)-9-methyl-2-(pyridin-2-yl)-7H-pyrrolo[3,2-e][1,2,4]triazolo[1,5-c]pyrimidine-8-carboxylic acid]	20 to 100	c (greater than 0 but less than or equal to 100)
CNC(=O)c1c(C)c2c(nc(N)n3nc(-c4ccccn4)nc23)n1CCN1CCCN(c2cc(-c3ncco3)ccc2F)CC1 [5-amino-7-(2-(4-(2-fluoro-5-(oxazol-2-yl)phenyl)-1,4-diazepan-1-yl)ethyl)-N,9-dimethyl-2-(pyridin-2-yl)-7H-pyrrolo[3,2-e][1,2,4]triazolo[1,5-c]pyrimidine-8-carboxamide]	≤ 20	b (greater than 100 but less than or equal to 1000)

Second part, led by results:

IC50 (human A2A AdoR) [nM]	Compound	A1/A2A Selectivity (A1AdoR)
≤ 20	CC#Cc1nc2c3ncn(CCN4CCN(c5cc(-n6cccn6)ccc5F)CC4)c3nc(N)n2n1	a (greater than 1000)
≤ 20	CC#Cc1nc2c3cc(C#N)n(CCN4CCN(c5ccc6onc(C)c6c5F)CC4)c3nc(N)n2n1	a (greater than 1000)
≤ 20	Cc1noc2cc(F)c(N3CCN(CCn4c(C(=O)O)c(C)c5c4nc(N)n4nc(-c6ccccn6)nc54)CC3)cc12	b (greater than 100 but less than or equal to 1000)
≤ 20	CNC(=O)c1c(Cl)c2c(nc(N)n3nc(-c4ccccn4)nc23)n1CCN1CCN(c2cc(-c3ncco3)ccc2F)CC1	a (greater than 1000)
≤ 20	NC(=O)c1c(Cl)c2c(nc(N)n3nc(-c4ccccn4)nc23)n1CCN1CCN(c2ccc(F)cc2F)CC1	c (greater than 0 but less than or equal to 100)
≤ 20	Cc1noc2cc(F)c(N3CCCN(CCn4c(C(N)=O)c(Cl)c5c4nc(N)n4nc(-c6ccccn6)nc54)CC3)cc12	b (greater than 100 but less than or equal to 1000)
≤ 20	Nc1nc2c(c(Cl)c(C(=O)NC3CC3)n2CCN2CCN(c3cc(-c4ncco4)ccc3F)CC2)c2nc(-c3ccccn3)nn12	a (greater than 1000)
≤ 20	2-(4-(4-(2-(5-amino-8-(methoxycarbonyl)-9-methyl-2-(pyridin-2-yl)-7H-pyrrolo[3,2-e][1,2,4]triazolo[1,5-c]pyrimidin-7-yl)ethyl)piperazin-1-yl)phenoxy)acetic acid	b (greater than 100 but less than or equal to 1000)
